Source: patent publication US20260183276A1, “miRNA DYSREGULATION CORRECTION AS A STRATEGY TO TREAT HUNTINGTON'S DISEASE” (The Chinese University of Hong Kong, priority 2022, published 2026)
Entries after “also recorded” stand apart in the source; their conditions may differ.

How the values were obtained:
[1] = tested on: EGFPCAG78-expressing SK-N-MC cells; assay: LDH cell death assay, EGFPCAG78-expressing SK-N-MC cells; format: cell-based
Description: (§1) SK-N-MC cells (ATCC) were cultured in DMEM (GE Healthcare BioSciences) supplemented with 10% fetal bovine serum and 1% penicillin-streptomycin. Cells were maintained in a 37° C. humidified cell culture incubator supplemented with 5% CO2. Plasmid DNA and siRNA/synthetic miRNA transfection was performed using Lipofectamine 2000 (Thermo Fisher Scientific) and Lipofectamine RNAiMAX (Thermo Fisher Scientific), respectively.
(§2) The LDH assay on SK-N-MC cells were performed according to manufacturer's instructions (CytoTox 96 Non-Radioactive Cytotoxicity Assay Kit, Promega).

[2] = tested on: PAPD5-overexpressing cells; assay: LDH cell death assay, PAPD5-overexpressing cells; format: cell-based
Description: as §1, §2

[3] = tested on: TAK1-MKK4-JNK pro-apoptotic signaling in PAPD5-overexpressing cells; assay: Western blotting of TAK1-MKK4-JNK caspase cascade, PAPD5-overexpressing cells; format: cell-based
Description: as §1
(§3) Proteins were extracted from SK-N-MC cells or mouse primary cortical neurons using SDS sample buffer. For protein extraction from mice, half of the brain was homogenized in protein lysis buffer (50 mM Tris-HCl, pH 7.6, 150 mM NaCl, 10% NP40, 5% sodium deoxycholate). All protein samples were boiled at 99° C. for 10 minutes, prior to Western blotting. Primary antibodies used were anti-PAPD5 (PA5-46747, 1:1,000) from Invitrogen; anti-p-TAK1 (4536, 1:1,000), anti-t-TAK1 (4505, 1:2,000), anti-p-MKK4 (9156, 1:1,000), anti-t-MKK4 (9152, 1:2,000), anti-p-MKK7 (4171, 1:1,000), anti-t-MKK7 (4172, 1:2,000), anti-p-JNK (9251, 1:2,000), anti-t-JNK (9252, 1:2,000), anti-TAB1 (3226, 1:2,000), anti-TAB2 (3745, 1:2,000), anti-cleaved caspase 3 (9664, 1:500) and anti-myc (2276, 1:2,000) from Cell Signaling Technology; antipolyQ (P1874, 1:1,000) and anti-HA (H3663, 1:2,000) from Sigma-Aldrich; anti-YY1 (ab109237, 1:2000) and anti-β-tubulin (ab6046, 1:2,000) from Abcam, and anti-GFP (JL-8, 1:4,000) from Clontech. Secondary antibodies used were goat anti-rabbit (11035-045, 1:5,000) and goat anti-mouse (115-035-062, 1:5,000) from Jackson ImmunoResearch.

[4] = tested on: EGFP-Htt1-550CAG89-expressing SK-N-MC cells; assay: LDH cell death assay, EGFP-Htt1-550CAG89-expressing SK-N-MC cells; format: cell-based
Description: as §1, §2

[5] = tested on: TAK1-MKK4-JNK pro-apoptotic signaling in EGFPCAG78-expressing cells; assay: Western blotting of TAK1-MKK4-JNK caspase cascade, EGFPCAG78-expressing cells; format: cell-based; conditions: for TAB2 expression / TAB1 expression / TAK1-triggered cell death: EGFPCAG78-transfected cells; for EGFPCAG78-induced TAK1 functional deregulation: FIG. 9B; for TAK1-triggered cell death: FIG. 9A
Description: as §1, §3

[6] = tested on: TAK1-MKK4-JNK pro-apoptotic signaling in EGFP-Htt1-550CAG89-expressing cells; assay: Western blotting of TAK1-MKK4-JNK caspase cascade, EGFP-Htt1-550CAG89-expressing SK-N-MC cells; format: cell-based
Description: as §1, §3

PAPD5 = PAPD5 (Homo sapiens, UniProt Q8NDF8); conditions: cited from earlier work
PAPD5, sequence (Q8NDF8 whole entry, the tested form may be a part): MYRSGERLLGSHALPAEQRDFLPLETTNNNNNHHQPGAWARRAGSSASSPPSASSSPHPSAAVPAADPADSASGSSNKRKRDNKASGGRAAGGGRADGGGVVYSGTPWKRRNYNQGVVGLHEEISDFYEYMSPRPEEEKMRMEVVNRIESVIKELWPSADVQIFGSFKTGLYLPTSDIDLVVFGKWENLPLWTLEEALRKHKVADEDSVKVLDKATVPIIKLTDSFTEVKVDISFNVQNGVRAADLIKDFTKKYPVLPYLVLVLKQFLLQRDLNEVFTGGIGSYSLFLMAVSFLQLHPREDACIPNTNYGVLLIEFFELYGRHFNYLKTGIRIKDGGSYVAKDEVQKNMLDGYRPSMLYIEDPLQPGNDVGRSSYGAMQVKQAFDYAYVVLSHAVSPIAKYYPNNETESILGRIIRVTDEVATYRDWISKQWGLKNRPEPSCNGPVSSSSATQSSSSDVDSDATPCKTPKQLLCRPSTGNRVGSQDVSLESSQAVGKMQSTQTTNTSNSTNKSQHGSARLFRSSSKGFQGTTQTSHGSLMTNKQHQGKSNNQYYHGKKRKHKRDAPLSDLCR

[7] = tested on: HttQ93-induced retinal neurodegeneration; assay: Pseudopupil assay, HttQ93 Drosophila model of Huntington's Disease; format: in vivo; conditions: 10 uM BCH001, gmr-GAL4 driver
Description: Fly lines gmr-Gal4 (Ellis et al., 1993), UAS-DsRedCAG0/100 (Li et al., 2008), UAS-Htt exon1Q93 (Steffan et al., 2001), UAS-flMJDQ27/84 (Warrick et al., 2005), UASCTG60/480 (Garcia-Lopez et al., 2008) and UAS-EGFP-CGG90 (Jin et al., 2003) were described previously. The UAS-PAPD5 dsRNA line (GD19799, GD41096, and GD45261) was obtained from Vienna Drosophila RNAi Center. All flies were maintained in cornmeal culture medium and genetic crosses were set up in a 21.5° C. incubator (LMS, Sevenoaks, Kent, UK).
12 days-post-eclosion (dpe) adult flies were used for the pseudopupil assay as described previously (Wong et al., 2008). Each fly eye was examined using an Olympus CX31 stereomicroscope. The images of ommatidia were captured using a SPOT Insight CCD camera (Diagnostic instruments Inc., Sterling Heights, MI, USA), and all images were processed using the SPOT Advanced software (Version 5.2; Diagnostic instruments Inc., Sterling Heights, MI, USA) and Photoshop 2020 (Adobe Systems). Two hundred ommatidia collected from 20 individual fly eyes were examined for each condition and used for statistical analysis. The average number of rhabdomeres per ommatidia was presented as the indication of ommatidial integrity.

[8] = tested on: EGFP-Htt1-550CAG89-expressing mouse primary cortical neurons; assay: Immunocytochemistry of synaptic markers and neurites, EGFP-Htt1-550CAG89-expressing primary cortical neurons; format: cell-based; conditions: 400 nM BCH001, 72 hours
Description: E16-embryos of C57BL6J wildtype mice were sacrificed to obtain the mouse primary cortical neurons as previously described (Peng et al., 2021). In brief, cortical lobes were dissected out in ice-cold PBS-glucose. Meninges were removed and cortices were digested in trypsin solution. Primary cortical neurons were cultured on poly-[…]-coated (0.05 mg/ml) glass coverslips in 24-well plates (50,000 cells per well) and maintained in a 37° C. humidified cell culture incubator supplemented with 5% CO2. Prior to transfection and drug treatment, neurons were cultured for 5 days. Mature primary neurons were transfected with DNA constructs together with Lipofectamine LTX and Plus Reagent (Thermo Fisher Scientific). Following the manufacturer's protocol, at 4 hours post-transfection culture medium was refreshed and 400 nM of BCH001 was added to the medium. Neurons were further incubated for 72 hours to allow recovery and ectopic expression. Neurons were fixed with 4% paraformaldehyde for 10 minutes, followed by permeabilization (0.2% Triton X-100) for another 10 minutes and blocking (1% BSA) for 1 hour at room temperature. Primary antibody incubation was performed in 1% BSA overnight at 4° C. After washing steps, neurons were incubated with secondary antibodies in 1% BSA in dark for 1 hour at room temperature. Samples were counterstained with 1 μg/ml 4,6-diamidino-2-phenylindole (DAPI) solution for nuclei visualization and then washed with PBS, followed by mounting and examined under a confocal microscope (Leica TCS SP8 high speed imaging system). To examine the neurite arborization and quantify the synaptic markers, primary neurons were stained with MAP2 (1:10,000; ab5392, Abcam) and Synapsin I (1:200; ab8, Abcam), Bassoon (1:200; ab110426, Abcam) or Homer1 (1:200; ab97593, Abcam) antibodies. The z stacked maximal projected images were used for statistical analyses using Photoshop 2020 (Adobe Systems). Ten EGFP-positive neurons per replica were used for the statistical analysis.

A-beta peptide toxicity = assay: A-beta1-42 peptide transgenic Drosophila model of Alzheimer's Disease; format: in vivo; conditions: A-beta1-42 transgenic Drosophila
[9] = tested on: telomerase RNA component (TERC); conditions: cited from earlier work
[10] = tested on: JNK phosphorylation and caspase 3 cleavage in EGFP-Htt1-550CAG89-expressing neurons; assay: Western blotting, EGFP-Htt1-550CAG89-expressing primary cortical neurons; format: cell-based, mouse
Description: E16-embryos of C57BL6J wildtype mice were sacrificed to obtain the mouse primary cortical neurons as previously described (Peng et al., 2021). In brief, cortical lobes were dissected out in ice-cold PBS-glucose. Meninges were removed and cortices were digested in trypsin solution. Primary cortical neurons were cultured on poly-[…]-coated (0.05 mg/ml) glass coverslips in 24-well plates (50,000 cells per well) and maintained in a 37° C. humidified cell culture incubator supplemented with 5% CO2. Prior to transfection and drug treatment, neurons were cultured for 5 days. Mature primary neurons were transfected with DNA constructs together with Lipofectamine LTX and Plus Reagent (Thermo Fisher Scientific). Following the manufacturer's protocol, at 4 hours post-transfection culture medium was refreshed and 400 nM of BCH001 was added to the medium. Neurons were further incubated for 72 hours to allow recovery and ectopic expression. Proteins were extracted from SK-N-MC cells or mouse primary cortical neurons using SDS sample buffer. For protein extraction from mice, half of the brain was homogenized in protein lysis buffer (50 mM Tris-HCl, pH 7.6, 150 mM NaCl, 10% NP40, 5% sodium deoxycholate). All protein samples were boiled at 99° C. for 10 minutes, prior to Western blotting. […]

In the case of `COc1cc(O)c2c(c1)/C=C/C[C@H](O)[C@H](O)C(=O)/C=C\C[C@H](C)OC2=O` [5Z-7-oxozeaenol], the “mutant CAG RNA (EGFPCAG78)-induced cell death” value (“mutant CAG RNA” for short) [1] is reported as “rescued”, the PAPD5-induced cell death ([2]; PAPD5 overexpression) is reported as “suppressed” and the TAK1/MKK4/JNK phosphorylation [3] is reported as “dose-dependent decrease”. The “caspase 3 cleavage” value [3] was “dose-dependent decrease”, the EGFP-Htt1-550CAG89-induced cell death [4] was “rescued” and the “TAK1-MKK4-JNK pro-apoptotic signaling (phosphorylation of TAK1, MKK4, JNK, caspase 3 cleavage)” value ([5]; EGFPCAG78-expressing cells) was “suppressed”. For the same compound, the “caspase 3 cleavage” value [6] was “rescued” and the “phosphorylation levels of TAK1, MKK4 and JNK” value (“phosphorylation levels of TAK1” for short) [6] was “rescued”.

For `CCOC(=O)c1cnc2ccc(OC(F)(F)F)cc2c1Nc1ccccc1C(=O)O` [BCH001], the PAPD5 enzyme activity (PAPD5) is given as “specifically target”, the “HttQ93-induced retinal neurodegeneration (rhabdomere numbers)” value [7] is given as “marked suppression” and the “neurites (primary, secondary, tertiary)” value [8] is given as “recovered to their control levels”. The “puncta number of Bassoon” value [8] was “restoration”, the “puncta number of Homer1” value [8] was “restoration” and the “puncta number of Synapsin I” value [8] was “restoration”. For the same compound, the synaptic defects [8] was “fully rescued”, the “mutant CAG RNA” value [1] was “completely suppressed” and the IC50 ([1]; Homo sapiens, FIG. 11, read-out: IC50 of suppression of EGFPCAG78-induced cell death) was 14.7 nM. For the same compound, the PAPD5-induced cell death ([2]; 200 nM BCH001, FIG. 4A) was “sufficient to suppress”, the “cell death induced by the compound” value ([2]; 400 nM, FIG. 4A) was “does not induce cell death” and the PAPD5-induced cell death ([2]; PAPD5 overexpression) was “suppressed in a dose-dependent manner”. The “A-beta peptide toxicity (retinal degeneration)” value (A-beta peptide toxicity) was “capable of suppressing”, the TAK1/MKK4/JNK phosphorylation [3] was “suppressed in a dose-dependent manner” and the “caspase 3 cleavage” value [3] was “suppressed in a dose-dependent manner”. The EGFP-Htt1-550CAG89-induced cell death [4] was “rescued”, the “3' adenylation of telomerase RNA component (TERC)” value [9] was “reduced” and the JNK phosphorylation [10] was “attenuated”. For the same compound, the “caspase 3 cleavage” value [10] was “attenuated”, the “caspase 3 cleavage” value [6] was “suppressed” and the “phosphorylation levels of TAK1” value [6] was “reduced”.

In the case of `COCCCOc1cc2c(cc1OC)-c1cc(=O)c(C(=O)O)cn1[C@H](C(C)C)C2` [RG7834], the “A-beta peptide toxicity (retinal degeneration)” value (A-beta peptide toxicity) is reported as “capable of suppressing”.

For “miR-7-5p: miRNA (IDT), SEQ ID NO: 15, predicted to target TAB2”, the TAB2 expression [5] was “capable of silencing” and the “EGFPCAG78-induced TAK1 functional deregulation” value [5] was “inhibiting”.

For “miR-10a-5p: miRNA (IDT), SEQ ID NO: 10, predicted to target TAB1 (UACCCUGUAGAUCCGAAUUUGUG; listed as RNA, chemistry not given here)”, the TAB1 expression [5] was “able to silence” and the TAK1-triggered cell death [5] was “inhibit”.

For “miR-22-5p: miRNA (IDT), SEQ ID NO: 14, predicted to target TAB2 (AGUUCUUCAGUGGCAAGCUUUA; listed as RNA, chemistry not given here)”, the TAB2 expression [5] was “capable of silencing” and the “EGFPCAG78-induced TAK1 functional deregulation” value [5] was “inhibiting”.

In the case of “miR-331-3p: miRNA (IDT), SEQ ID NO: 12, predicted to target TAB1 (GCCCCUGGGCCUAUCCUAGAA; listed as RNA, chemistry not given here)”, the TAB1 expression [5] is reported as “able to silence” and the TAK1-triggered cell death [5] is reported as “inhibit”.

With “miR-504: miRNA targeting TAB1, expressed from construct pRI-CMV/GFP-miR-504 (mimic sequence SEQ ID NO: 3) (GACCCTGGTCTGCACTCTATC; listed as DNA, chemistry not fully specified)” the “mutant CAG RNA” value [1] was “inhibited in a dose-dependent manner”, the EGFP-Htt1-550CAG89-induced cell death [4] was “rescued” and the “phosphorylation of TAK1 and JNK, and cleavage of caspase 3” value ([5]; EGFPCAG78-expressing cells, miRNA overexpression) was “suppressed”. For the same compound, the TAB1 expression [5] was “most robust gene-silencing effects; also recorded: reduced”, the “caspase 3 cleavage” value [6] was “rescued” and the “phosphorylation levels of TAK1” value [6] was “rescued”.
